Experimental data as given in ChEMBL document CHEMBL1145171, “Synthesis, biological evaluation, and molecular modeling investigation of new chiral fibrates with PPARalpha and PPARgamma agonist activity” (J Med Chem, 2005).

What was measured:
[1] = biological target: T1, Peroxisome proliferator-activated receptor gamma (Homo sapiens, UniProt P37231)
T1 sequence (P37231 whole entry): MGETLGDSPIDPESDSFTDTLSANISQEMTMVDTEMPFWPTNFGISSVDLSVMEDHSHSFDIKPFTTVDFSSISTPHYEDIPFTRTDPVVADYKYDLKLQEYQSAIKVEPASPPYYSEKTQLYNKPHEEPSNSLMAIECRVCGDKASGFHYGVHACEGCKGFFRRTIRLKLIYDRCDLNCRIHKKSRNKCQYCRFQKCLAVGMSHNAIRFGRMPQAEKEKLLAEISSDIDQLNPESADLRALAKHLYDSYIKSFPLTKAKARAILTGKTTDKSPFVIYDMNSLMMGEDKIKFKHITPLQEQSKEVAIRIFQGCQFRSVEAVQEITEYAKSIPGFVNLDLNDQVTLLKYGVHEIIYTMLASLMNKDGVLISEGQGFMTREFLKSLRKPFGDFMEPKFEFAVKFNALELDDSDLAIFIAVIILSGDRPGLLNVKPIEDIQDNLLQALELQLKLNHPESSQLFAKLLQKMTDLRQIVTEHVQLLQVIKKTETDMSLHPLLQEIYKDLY

[2] = biological target: T2, Peroxisome proliferator-activated receptor alpha (Homo sapiens, UniProt Q07869); assay: Effective concentration against human PPARalpha expressed in HepG2 cells; assay type: cell-based
T2 sequence (Q07869 whole entry): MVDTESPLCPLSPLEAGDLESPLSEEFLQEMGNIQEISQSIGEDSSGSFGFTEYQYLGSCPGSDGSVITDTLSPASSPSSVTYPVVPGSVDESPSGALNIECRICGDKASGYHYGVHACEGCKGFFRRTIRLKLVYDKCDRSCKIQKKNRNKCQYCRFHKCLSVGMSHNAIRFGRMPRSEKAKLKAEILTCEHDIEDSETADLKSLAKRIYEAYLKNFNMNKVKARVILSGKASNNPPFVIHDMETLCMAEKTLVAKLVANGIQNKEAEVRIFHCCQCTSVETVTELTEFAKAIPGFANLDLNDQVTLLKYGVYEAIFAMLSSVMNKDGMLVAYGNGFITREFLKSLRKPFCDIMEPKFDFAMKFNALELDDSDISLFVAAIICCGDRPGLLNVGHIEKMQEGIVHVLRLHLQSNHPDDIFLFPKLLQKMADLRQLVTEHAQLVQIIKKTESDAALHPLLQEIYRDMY

[3] = biological target: T3, Peroxisome proliferator-activated receptor alpha (Homo sapiens) (UniProt Q07869); assay: Efficacy against human PPARalpha expressed in HepG2 cells relative to Wy-14,643; assay type: cell-based
T3 sequence (whole entry): T2 sequence (Q07869 whole entry)

[4] = biological target: T2, Peroxisome proliferator-activated receptor alpha; assay: Effective concentration against human PPARalpha expressed in HepG2 cells; i.a = inactive at tested concentration; assay type: cell-based
[5] = biological target: T4, Peroxisome proliferator-activated receptor alpha (Mus musculus) (UniProt P23204); assay: Efficacy against murine PPARalpha relative to Wy-14,643
T4 sequence (whole entry): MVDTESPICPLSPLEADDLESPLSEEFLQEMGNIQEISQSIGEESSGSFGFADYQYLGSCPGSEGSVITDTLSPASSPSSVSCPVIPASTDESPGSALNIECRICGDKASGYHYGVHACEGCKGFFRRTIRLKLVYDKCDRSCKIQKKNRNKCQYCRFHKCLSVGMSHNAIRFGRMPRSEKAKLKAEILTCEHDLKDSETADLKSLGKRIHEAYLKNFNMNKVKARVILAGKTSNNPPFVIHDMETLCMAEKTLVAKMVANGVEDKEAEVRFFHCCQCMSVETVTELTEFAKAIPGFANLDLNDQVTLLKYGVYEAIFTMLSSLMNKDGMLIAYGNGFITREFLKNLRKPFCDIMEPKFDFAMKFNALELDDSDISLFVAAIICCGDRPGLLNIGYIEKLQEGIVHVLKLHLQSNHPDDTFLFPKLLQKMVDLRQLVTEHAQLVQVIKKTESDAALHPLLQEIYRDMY

[6] = biological target: T5, Peroxisome proliferator-activated receptor alpha (Mus musculus, UniProt P23204); assay: Effective concentration against murine PPARalpha in transactivation assay
T5 sequence (P23204 whole entry): T4 sequence (whole entry)

[7] = biological target: T1, Peroxisome proliferator-activated receptor gamma; assay: Effective concentration against human PPARgamma expressed in HepG2 cells; i.a = inactive at tested concentration; assay type: cell-based

SMILES	EC50 [1]	EC50 [2]	Efficacy [3]	EC50 [4]	Efficacy [5]	EC50 [6]	EC50 [7]
CCC[C@H](OCc1ccc(-c2ccc(Cl)cc2)cc1)C(=O)O	8.9 µM	3.9 µM	29.8				
O=C(O)[C@H](Cc1ccccc1)Oc1ccc2ccccc2c1	1.5 µM	1.4 µM	130				
CN(CCOc1ccc(CC2SC(=O)NC2=O)cc1)c1ccccn1 (centres undefined) [ROSIGLITAZONE]				Not Active			
CC(=O)c1ccc(O[C@@H](Cc2ccccc2)C(=O)O)cc1	12.4 µM	13.5 µM	68.3				
O=C(O)[C@H](Cc1ccccc1)Oc1ccc(C(F)(F)F)cc1	0.9 µM	0.5 µM	80.7		107	0.27 µM	
COc1ccc(O[C@@H](Cc2ccccc2)C(=O)O)cc1	20.1 µM	2.5 µM	80.7				
O=C(O)[C@H](Cc1ccccc1)Oc1ccc(-c2ccccc2)cc1			124		99.3	0.2 µM	
CC(C)(Oc1ccc(Cl)cc1)C(=O)O [CLOFIBRIC ACID]	309 µM	39.6 µM	89.7		67.2	42 µM	
Cc1cccc(Nc2cc(Cl)nc(SCC(=O)O)n2)c1C [PIRINIXIC ACID]			100		100		Not Active
CCC[C@@H](OCc1ccc(-c2ccc(Cl)cc2)cc1)C(=O)O	5.4 µM	4 µM	36.6				
O=C(O)[C@H](Cc1ccccc1)Oc1ccc(Cl)cc1	2.7 µM	3.9 µM	99.4		49.1	1.3 µM	
CCc1ccc(O[C@@H](Cc2ccccc2)C(=O)O)cc1	3.6 µM	0.7 µM	114		127	0.35 µM	
CCC[C@H](Oc1ccc2ccccc2c1)C(=O)O	7.2 µM	8.4 µM	95.6				
O=C(O)[C@@H](Cc1ccccc1)Oc1ccc(Cl)cc1	10.5 µM	10.9 µM	14.3				
O=C(O)[C@H](Cc1ccccc1)Oc1ccc(CO)cc1	25.7 µM	28.7 µM	38.2				
O=C(O)[C@H](Cc1ccccc1)Oc1ccc(-c2cccs2)cc1	1.6 µM	0.9 µM	93.2		70.7	0.15 µM	
CCC[C@@H](Oc1ccc2ccccc2c1)C(=O)O	12.5 µM	3.9 µM	10.5				
